Common to all, as to conditions: Table 1
In one assay the target is PKC-β2 (Homo sapiens, UniProt P05771). Description: PKC Enzyme Assay, beta-2 isozyme. The format is biochemical. On the procedure: (§1) PKC enzymes=alpha, beta I, beta II, gamma, delta, epsilon, eta and zeta.
(§2) Assay components in a total volume of 250 μL are as follows:
(§3) For all the enzymes either histone type HL (Worthington) or myelin basic protein is used as substrate. The assay is started by addition of protein kinase C enzyme incubated at 30° C. for 10 minutes and stopped by adding 0.5 mL of cold trichloroacetic acid (Amresco) followed by 100 μL of 1 mg/mL bovine serum albumin (Sigma, St. Louis, Mo.). The precipitate is collected by vacuum filtration on glass fiber filters employing a TOMTEC™ filtration system and quantified by counting in a beta scintillation counter.

The target of a further assay is PKC-β1 (Homo sapiens, UniProt P05771). The experiment in a line: PKC Enzyme Assay, beta-1 isozyme. The format is biochemical. Here is the method: as §1, §2, §3
PKC-β1, sequence (P05771 whole entry): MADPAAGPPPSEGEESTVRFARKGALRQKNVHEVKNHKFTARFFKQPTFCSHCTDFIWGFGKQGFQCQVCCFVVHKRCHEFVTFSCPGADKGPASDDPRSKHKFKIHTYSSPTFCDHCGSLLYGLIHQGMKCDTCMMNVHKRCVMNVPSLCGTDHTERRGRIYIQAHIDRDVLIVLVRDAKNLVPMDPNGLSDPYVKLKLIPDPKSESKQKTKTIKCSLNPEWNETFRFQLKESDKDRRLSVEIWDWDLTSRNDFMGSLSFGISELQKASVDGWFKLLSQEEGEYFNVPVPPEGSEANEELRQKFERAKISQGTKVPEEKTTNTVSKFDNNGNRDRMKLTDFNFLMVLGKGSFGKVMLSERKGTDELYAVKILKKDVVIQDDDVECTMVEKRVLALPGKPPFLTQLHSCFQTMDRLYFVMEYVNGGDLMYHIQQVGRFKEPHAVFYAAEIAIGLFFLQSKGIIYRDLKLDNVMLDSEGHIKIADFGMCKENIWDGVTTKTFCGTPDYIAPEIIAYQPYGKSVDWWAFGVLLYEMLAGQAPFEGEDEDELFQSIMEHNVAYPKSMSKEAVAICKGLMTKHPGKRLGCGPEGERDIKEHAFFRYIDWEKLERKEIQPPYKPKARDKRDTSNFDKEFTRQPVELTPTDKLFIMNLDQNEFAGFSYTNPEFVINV
The next assay deals with PKC-α (Homo sapiens, UniProt P17252). Description: PKC Enzyme Assay, alpha isozyme. The assay is classed as biochemical. On the procedure: as §1, §2, §3
In the next assay the target is T1, casein protein kinase II (Rattus norvegicus, UniProt P19139).
T1 construct: isolated from rat brain homogenate; from tissue; host or cells: rat brain homogenate
T1 sequence (P19139 whole entry): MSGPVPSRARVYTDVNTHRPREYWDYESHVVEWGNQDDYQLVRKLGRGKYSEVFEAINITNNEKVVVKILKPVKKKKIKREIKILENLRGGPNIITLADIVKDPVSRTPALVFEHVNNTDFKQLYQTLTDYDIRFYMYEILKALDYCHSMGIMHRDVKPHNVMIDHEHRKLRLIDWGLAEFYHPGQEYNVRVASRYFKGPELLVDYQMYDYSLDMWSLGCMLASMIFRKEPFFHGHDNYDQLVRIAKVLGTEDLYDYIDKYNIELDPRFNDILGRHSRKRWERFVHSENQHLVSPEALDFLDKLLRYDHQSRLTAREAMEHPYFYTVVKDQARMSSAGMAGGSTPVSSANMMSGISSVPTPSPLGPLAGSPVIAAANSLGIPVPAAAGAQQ
T1 sequence (P67874 2-215 partner limits assumed): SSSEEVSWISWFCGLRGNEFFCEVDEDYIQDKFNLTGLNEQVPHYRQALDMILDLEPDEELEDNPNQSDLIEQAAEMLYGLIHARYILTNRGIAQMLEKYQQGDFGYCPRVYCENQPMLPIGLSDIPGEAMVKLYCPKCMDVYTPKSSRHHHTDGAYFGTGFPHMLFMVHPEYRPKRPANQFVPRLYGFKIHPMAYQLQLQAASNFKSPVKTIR
Description: Casein Protein Kinase II Assay (CK-II). The assay is classed as biochemical. Here is the method:
Casein Protein Kinase II Assay (CK-II)
The Casein Protein Kinase II Assay is described in Neurochem. […] The assay components are in a total volume of 250 μL: 20 mM Tris-HCl, pH 7.5, 5 mM sodium fluoride, 50 mg/mL Casein (Sigma, St. Louis, Mo.), 10 mM magnesium chloride (Sigma, St. Louis, Mo.), 10 μL DMSO or DMSO/inhibitor and 30 μm (gamma-32P) ATP (DuPont). Initiation of the reaction is performed by addition of casein protein kinase II (isolated from rat brain homogenate), incubated at room temperature for 10 minutes and stopped by the addition of 0.5 mL ice cold Trichloroacetic acid (Amresco) followed by 100 μL of 1 mg/mL bovine serum albumin (Sigma, St. Louis, Mo.). The precipitate is collected by vacuum filtration on glass fiber filters and quantified by counting in a beta scintillation counter.
Assay components in order of addition
10 μL or DMSO or DMSO/inhibitor
25 μL of AT32P in 300 μM magnesium chloride
40 μL of enzyme (undiluted)
Buffer prepared as follows:
(Final volume=3.5 mL: amount of 20 assays)

In a further assay the target is T2, src (Homo sapiens, UniProt P12931).
T2 construct: purchased Onogene Science, Inc. PK02 and PK03
T2 sequence (P12931 whole entry, species assumed): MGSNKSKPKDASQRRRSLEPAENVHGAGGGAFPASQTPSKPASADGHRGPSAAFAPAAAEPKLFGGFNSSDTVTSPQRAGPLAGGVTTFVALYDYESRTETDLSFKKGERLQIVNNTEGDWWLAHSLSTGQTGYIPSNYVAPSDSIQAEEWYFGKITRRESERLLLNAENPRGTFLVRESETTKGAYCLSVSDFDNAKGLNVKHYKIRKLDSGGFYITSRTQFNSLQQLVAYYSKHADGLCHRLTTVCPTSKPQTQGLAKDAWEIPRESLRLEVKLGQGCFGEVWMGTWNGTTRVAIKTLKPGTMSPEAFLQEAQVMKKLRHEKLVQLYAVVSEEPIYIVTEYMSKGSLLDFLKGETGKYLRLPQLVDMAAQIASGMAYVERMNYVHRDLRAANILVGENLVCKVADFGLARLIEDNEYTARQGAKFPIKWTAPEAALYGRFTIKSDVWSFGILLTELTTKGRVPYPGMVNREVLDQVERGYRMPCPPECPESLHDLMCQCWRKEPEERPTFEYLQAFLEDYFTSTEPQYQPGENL
The experiment in a line: Protein Tyrosine Kinase Assay (src). The assay is classed as biochemical. On the procedure: Protein Tyrosine Kinase Assay (src)
The Assay components are the following:
4 μL DMSO or DMSO/inhibitor

Assay [1] addresses T3, cAMP-dependent kinase catalytic subunit (Bos taurus, UniProt P00517).
T3 construct: purchased Sigma, St. Louis, Mo; host or cells: bovine heart
The experiment in a line: cAMP-Dependent protein Kinase Catalytic Subunit Assay. The format is biochemical, bovine. Here is the method:
cAMP-Dependent protein Kinase Catalytic Subunit Assay (PEA) The Assay components are in a total volume of 250 μL: 20 mM HEPES (Sigma, St. Louis, Mo.) buffer pH 7.5, 200 μg/mL histone type HL (Worthington), 10 mM magnesium chloride (Sigma, St. […] The reaction is initiated by addition of bovine heart cAMP-dependent kinase catalytic subunit (Sigma, St. Louis, Mo.), incubated to 30° C. for 10 minutes and stopped by adding 0.5 mL ice cold Trichloroacetic acid (Amresco) followed by 100 μL of 1 mg/mL bovine serum albumin (Sigma). The precipitate is collected by vacuum filtrated on glass fiber filters employing a TOMTEC™ and quantified by counting in a beta scintillation counter. This assay is done identical to the protein kinase C (PKC) enzyme assay except that no phospholipids or diacylglycerol are employed in the assay and the histone substrate is specific for the cAMP-dependent catalytic subunit enzyme.

For assay [2], the target named is calcium calmodulin dependent protein kinase. The experiment in a line: Calcium Calmodulin Dependent Protein Kinase Assay (CAM). The format is biochemical, rat. Here is the method:
Calcium Calmodulin Dependent Protein Kinase Assay (CAM)
The reaction is initiated by the addition of calcium calmodulin dependent protein kinase (isolated from rat brain homogenate), incubated at room temperature for 10 minutes and stopped by adding 0.5 mL ice cold trichloroacetic acid (Amresco) followed by 100 μL of 1 mg/mL bovine serum albumin (Sigma, St. Louis, Mo.). The precipitate is collected by vacuum filtration on glass fiber filters and quantified by counting in a beta scintillation counter.
25 μL calmodulin (250 μg/mL)
10 μL DMSO or DMSO/inhibitor

Structures can show the parent of a compound that is named as a salt.

PKC-β2, sequence (P05771 1-673 isoform P05771-2): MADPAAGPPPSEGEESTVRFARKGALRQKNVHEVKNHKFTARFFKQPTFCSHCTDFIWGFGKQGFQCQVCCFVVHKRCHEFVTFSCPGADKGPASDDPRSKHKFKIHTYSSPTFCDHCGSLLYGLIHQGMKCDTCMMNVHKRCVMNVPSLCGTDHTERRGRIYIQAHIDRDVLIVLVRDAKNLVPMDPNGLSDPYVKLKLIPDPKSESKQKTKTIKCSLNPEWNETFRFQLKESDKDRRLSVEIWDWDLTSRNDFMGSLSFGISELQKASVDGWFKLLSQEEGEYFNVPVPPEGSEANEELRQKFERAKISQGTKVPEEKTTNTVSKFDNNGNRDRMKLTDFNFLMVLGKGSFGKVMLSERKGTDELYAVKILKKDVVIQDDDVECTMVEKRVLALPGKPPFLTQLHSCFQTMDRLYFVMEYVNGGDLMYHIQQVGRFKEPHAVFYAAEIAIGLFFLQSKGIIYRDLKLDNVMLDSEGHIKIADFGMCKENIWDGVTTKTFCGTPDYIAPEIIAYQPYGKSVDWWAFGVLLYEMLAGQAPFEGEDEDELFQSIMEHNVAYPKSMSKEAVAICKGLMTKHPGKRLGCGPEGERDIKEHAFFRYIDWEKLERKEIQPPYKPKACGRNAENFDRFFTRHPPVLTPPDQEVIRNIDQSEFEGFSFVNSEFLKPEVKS

Broadly, the IC50 is the concentration that inhibits the measured activity by half. Turning to `O=C1NC(=O)C2=C1c1cn(c3ccccc13)CCOCCn1cc2c2ccccc21` [Example 1, 3,4-[(N,N'-1,1'-ethoxyethyl)-bis-(3,3'-indolyl)]-1H-pyrrole-2,5-dione], the IC50 against PKC-β2 was 40 nM; against PKC-β1, 50 nM; on PKC-α, 1000 nM; against casein protein kinase II, greater than 100000 nM.
In turn, `O=C1NC(=O)C2=C1c1cn(c3ccccc13)CCOC(CO)CCn1cc2c2ccccc21` (stereo not drawn) [Example 3] gave a concentration for half-maximal inhibition (IC50) against src greater than 100000 nM.
As to `CN(C)C[C@H]1CCn2cc(c3ccccc32)C2=C(C(=O)NC2=O)c2cn(c3ccccc23)CCO1` [Example 5r], the concentration for half-maximal inhibition (IC50) in assay [1] is greater than 100000 nM; in assay [2], 5000 nM; against casein protein kinase II it was greater than 100000 nM.
In the case of `CN(C)C[C@@H]1CCn2cc(c3ccccc32)C2=C(C(=O)NC2=O)c2cn(c3ccccc23)CCO1` [Example 5s], the half-inhibitory concentration (IC50) in assay [1] was greater than 100000 nM; in assay [2] it was 8000 nM; against casein protein kinase II, greater than 100000 nM.
For `O=C1NC(=O)C2=C1c1cn(c3ccccc13)CCOCC(CO)CCn1cc2c2ccccc21` (stereo not drawn) [Example 6], the IC50 on PKC-β2 was 35 nM; on PKC-β1, 43 nM; on PKC-α, 4200 nM.
The corresponding values for `O=C1NC(=O)C2=C1c1cn(c3ccccc13)CCOCC(CN1CCCC1)CCn1cc2c2ccccc21` (stereo not drawn) [Example 7, 3,4-[(N,N'-1,1'-(2"-ethoxy-(3"'((O)-methylene)-4"'-(N-pyrrolidino)-butane)-bis-(3,3'-indolyl)]-1(H)-pyrrole-2,5-dione hydrochloride salt] are 180 nM, 150 nM and greater than 5000 nM.
Consider `CN(C)CC1CCn2cc(c3ccccc32)C2=C(C(=O)NC2=O)c2cn(c3ccccc23)CCOC1` (stereo not drawn) [Example 8, 3,4-[(N,N'-1,1'-(2"-ethoxy-(3"'((O)-methylene)-4"'-(N,N-dimethylamino)-butane)-bis-(3,3'-indolyl)]-1(H)-pyrrole-2,5-dione hydrochloride salt], for which the 50% inhibitory concentration (IC50) against PKC-β2 was determined as 32 nM; against PKC-β1, 37 nM; on PKC-α, 2500 nM.
In the case of `O=C1NC(=O)C2=C1c1cn(c3ccccc13)CCCOC(CN1CCCC1)CCn1cc2c2ccccc21` (stereo not drawn) [Example 12], the 50% inhibitory concentration (IC50) is 500 nM on PKC-β2; greater than 100000 nM in assay [1]; 600 nM on PKC-β1; 93000 nM in assay [2]; 19000 nM on PKC-α; greater than 100000 nM against casein protein kinase II.
In the case of `O=C1NC(=O)C2=C1c1cn(c3ccccc13)CCCOC(CNCc1ccccc1)CCn1cc2c2ccccc21` (stereo not drawn) [Example 13], the figures for the IC50 on PKC-β2, at PKC-β1 and against PKC-α were 940 nM, 1900 nM and greater than 5000 nM, respectively.
Take `O=C1NC(=O)C2=C1c1cn(c3ccccc13)CCCOC(CNS(=O)(=O)c1ccccc1)CCn1cc2c2ccccc21` (stereo not drawn) [Example 15]: the values for the half-inhibitory concentration (IC50) against PKC-β2, at PKC-β1 and on PKC-α were 830 nM, 2900 nM and greater than 5000 nM, respectively.
Consider `O=C(NCC1CCn2cc(c3ccccc32)C2=C(C(=O)NC2=O)c2cn(c3ccccc23)CCCO1)OCc1ccccc1` (stereo not drawn) [Example 16], for which the IC50 at PKC-β2 is 2300 nM; at PKC-β1, 3200 nM; at PKC-α it was greater than 5000 nM.
Consider `O=C1NC(=O)C2=C1c1cn(c3ccccc13)CCO[C@@H](CNCc1ccccc1)CCn1cc2c2ccccc21` [Example 18r], for which the IC50 against PKC-β2 was 87 nM; in assay [1] it was greater than 100000 nM; against PKC-β1, 83 nM; in assay [2] it was 8800 nM; on PKC-α it was 3400 nM; on casein protein kinase II, greater than 100000 nM.
With `O=C1NC(=O)C2=C1c1cn(c3ccccc13)CCO[C@H](CNCc1ccccc1)CCn1cc2c2ccccc21` [Example 18s], the 50% inhibitory concentration (IC50) is 300 nM against PKC-β2; greater than 100000 nM in assay [1]; 380 nM on PKC-β1; 6400 nM on PKC-α; greater than 100000 nM against casein protein kinase II.
Regarding `O=C1NC(=O)C2=C1c1cn(c3ccccc13)CCO[C@H](CNS(=O)(=O)c1ccccc1)CCn1cc2c2ccccc21` [Example 21s], the half-maximal inhibitory concentration (IC50) was determined as 44 nM against PKC-β2 and 170 nM at PKC-β1.
`CN1CCN(C[C@@H]2CCn3cc(c4ccccc43)C3=C(C(=O)NC3=O)c3cn(c4ccccc34)CCO2)CC1` [Example 23s]: the values for the half-inhibitory concentration (IC50) at PKC-β2, on PKC-β1 and at PKC-α were 240 nM, 300 nM and 1800 nM, respectively.
As for `O=C1NC(=O)C2=C1c1cn(c3ccccc13)CCO[C@H](CN1CCOCC1)CCn1cc2c2ccccc21` [Example 24s], the results for the IC50 against PKC-β2, against PKC-β1 and at PKC-α were 380 nM, 490 nM and 3500 nM, respectively.
`O=C(NC[C@H]1CCn2cc(c3ccccc32)C2=C(C(=O)NC2=O)c2cn(c3ccccc23)CCO1)OCc1ccccc1` [Example 25r]: the IC50 is 120 nM at PKC-β2; greater than 100000 nM in assay [1]; 43 nM against PKC-β1; 22000 nM in assay [2]; 94000 nM on PKC-α; greater than 100000 nM on casein protein kinase II.
For `O=C1NC(=O)C2=C1c1cn(c3ccccc13)CCOc1ccccc1Cn1cc2c2ccccc21` [Example 27, 3,4-[(N,N'-1,1'-(2"-ethoxy)-benzyl)-bis-(3,3'-indolyl)]-1(H) -pyrrole-2,5-dione hydrochloride], the IC50 is 26 nM against PKC-β2, 49 nM against PKC-β1 and 2200 nM at PKC-α.
The corresponding values for `O=C(OCc1ccccc1)OCC1CCCn2cc(c3ccccc32)C2=C(C(=O)NC2=O)c2cn(c3ccccc23)CC1` (stereo not drawn) [Example 29, 3,4-[(N,N'-1,1'-(3"-(benzylcarbonate)methylene)hexane)-bis-(3,3'-indolyl)]-1H-pyrrole-2,5-dione] are 800 nM, 700 nM and greater than 100000 nM.
For the molecule `O=C1NC(=O)C2=C1c1cn(c3ccccc13)CCC[C@@H](CO)CCn1cc2c2ccccc21` [Example 31r], the IC50 at PKC-β2 came to 8 nM; against PKC-β1, 19 nM; on PKC-α it was 240 nM.
Regarding `CN(C)C[C@H]1CCCn2cc(c3ccccc32)C2=C(C(=O)NC2=O)c2cn(c3ccccc23)CC1` [Example 40s, (S)-3,4-[(N,N'-1,1'-(3"-(N,N-dimethylamine)methylene)-hexane)-bis-(3,3'-indolyl)]-1H-pyrrole-2,5-dione hydrochloride salt], the concentration for half-maximal inhibition (IC50) in assay [1] was greater than 100000 nM; in assay [2], 41000 nM; at PKC-α, 400 nM; against casein protein kinase II it was greater than 100000 nM.
As to `O=C1NC(=O)C2=C1c1cn(c3ccccc13)CCCCCCCCn1cc2c2ccccc21` [Example 44], the IC50 is 2000 nM on PKC-β2, 2000 nM at PKC-β1 and greater than 100000 nM at PKC-α.
As to `O=C1NC(=O)C2=C1c1cn(c3ccccc13)CCC(CO)CCn1cc2c2ccccc21` [Example 51, 3,4-[(N,N'-1,1'-(3"-(hydroxy)methylene)pentan)-bis-(3,3'-indolyl)]-1(H)-pyrrole-2,5-dione], the half-inhibitory concentration (IC50) against PKC-β2 came out at 500 nM; against PKC-β1 it was 500 nM; at PKC-α it was 49000 nM.
Take `CN(C)CC1CCn2cc(c3ccccc32)C2=C(C(=O)NC2=O)c2cn(c3ccccc23)CC1` [Example 54, 3,4-[(N,N'-1,1'-(3"-(N,N-(dimethylamino)methylene)pentanyl)-bis-(3,3'-indolyl)]-1(H)-pyrrole-2,5-dione hydrochloride]: the IC50 at PKC-β2 was determined as 4 nM; on PKC-β1, 5 nM; on PKC-α, 160 nM.
Consider `O=C1NC(=O)C2=C1c1cn(c3ccccc13)CCCOC(CNCc1ccccc1)CCn1cc2c2ccccc21` (stereo not drawn) [Example 55], for which the results for the IC50 at PKC-β2 and against PKC-β1 were 380 nM and 410 nM, respectively.

Values taken from patent publication US5696108A, “Protein kinase C inhibitors” (Eli Lilly and Company, priority 1996, dated 1997).
